Reference: US12649750B2, “Macrocyclic compounds, compositions, and methods of using thereof” (Sionna Therapeutics Inc., priority 2022, dated 2026)

How the values were obtained:
NBD1 = target: T1, NBD1 (Homo sapiens, UniProt P13569); experiment: Aggregation analysis using differential static light scattering (DSLS), thermal stability of NBD1 (ΔTagg); assay type: binding; settings: ΔTagg versus DMSO control, NBD1 0.2 mg/ml
T1 construct: Purified recombinant NBD1 was produced using previously described methods; made in house
How it was run: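 Purified recombinant NBD1 at 0.2 mg/ml in 50 mM Tris-HCl, 150 mM NaCl, 5 mM MgCl2, 2 mM ATP, 2 mM DTT, pH 7.6, 1% glycerol, with compound, heated 1° C./min to 70° C. under light-scattering monitoring. Tagg taken at curve inflection; ΔTagg is compound Tagg minus mean DMSO-control Tagg, binned A (≤5° C.), B (>5-≤10° C.), C (>10-≤25° C.).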

CFTR = target: T2, CFTR (Homo sapiens, UniProt P13569, DEL508-508); experiment: TECC24 AUC fold over DMSO @10 μM, CFTR-mediated transepithelial chloride transport in CF-HBE cells; assay type: cell-based; settings: test agent AUC divided by DMSO vehicle AUC, primary CF-HBE cells, ΔF508 homozygous donor, 48 hours incubation
T2 construct: Primary human bronchial epithelial cells from a ΔF508 homozygous CF donor; host or cells: primary human bronchial epithelial cells (CF-HBE), ΔF508 homozygous donor
Procedure: Example 387. TECC24 AUC Fold Over DMSO @10 μM
The effects of a test agent on CFTR-mediated transepithelial chloride transport is measured using TECC24 recording analysis. Test agents are solubilized in DMSO. Solubilized test agents are mixed with incubation medium containing DMEM/F12, Ultroser G (2%; Crescent Chemical, catalog #67042), Hyclone Fetal Clone II (2%; GE Healthcare, catalog #SH30066.02), bovine brain extract (0.25%; Lonza, catalog #CC-4098), insulin (2.5 μg/mL), IL-13 (10 ng/mL), hydrocortisone (20 nM), transferrin (2.5 μg/mL), triiodothyronine (500 nM), ethanolamine (250 nM), epinephrine (1.5 μM), phosphoethanolamine (250 nM), and retinoic acid (10 nM). Primary human bronchial epithelial cells from a ΔF508 homozygous CF donor (CF-HBE cells; from University of North Carolina Cystic Fibrosis Tissue Procurement Center), grown on Transwell HTS 24-well cell culture inserts (Costar, catalog #3378), are exposed to test agents or controls dissolved in incubation medium. The CF-HBE cells are cultured at 36.5° C. for 48 hours before TECC24 recordings are performed in the presence or absence of test agent, a positive control or vehicle (DMSO).
Following incubation, the transwell cell culture inserts containing the test agent or control-treated CF-HBE cells are loaded onto a TECC24 apparatus (TECC v7 or MTECC v2; EP Design) to record the transepithelial voltage (VT) and resistance (TEER) using 4 AgCl electrodes per well configured in current-clamp mode. The apical and basolateral bath solutions both contain (in mM) 140 NaCl, 5 KCl, 2 CaCl2, 1 MgCl2, 10 Hepes, and 10 glucose (adjusted to pH 7.4 with NaOH). To inhibit basal Na+ absorption, the ENaC inhibitor benzamil (10 μM) is added to the bath. Then, the adenylate cyclase activator, forskolin (10 μM), is added to the bath to activate CFTR. The forskolin-stimulated Cl— transport is halted by addition of CFTR inhibitor-172 (20 μM) to the bath at the end of the experiment to confirm specificity. VT and TEER recordings are digitally acquired at routine intervals using TECC or MTECC software (EP Design). VT and TEER are transformed into equivalent transepithelial Cl— current (IEQ), and the Area Under the Curve (AUC) of the IEQ time course between forskolin and CFTR inhibitor-172 addition is generated using Excel (Microsoft). Efficacy is expressed as the ratio of the test agent AUC divided by vehicle AUC. EC50s based on AUC are generated using the non-linear regression log(agonist) vs. response function in Prism software (Graphpad) with HillSlope fixed=1.
If a test agent increases the AUC of the forskolin-stimulated IEQ relative to vehicle in CF-HBE cells, and this increase is inhibited by CFTR inhibitor-172, then the test agent is considered a CFTR corrector. TECC assay efficacy is expressed as the ratio of the test agent AUC divided by DMSO vehicle AUC. As set forth in Table 2 below, a TECC value less than 12 is marked “A”; a value between 12-20 is marked “B”; a value between 20 and 80 is marked “C”. […]

T2 sequence (P13569 with tags, fused parts or gaps DEL508-508): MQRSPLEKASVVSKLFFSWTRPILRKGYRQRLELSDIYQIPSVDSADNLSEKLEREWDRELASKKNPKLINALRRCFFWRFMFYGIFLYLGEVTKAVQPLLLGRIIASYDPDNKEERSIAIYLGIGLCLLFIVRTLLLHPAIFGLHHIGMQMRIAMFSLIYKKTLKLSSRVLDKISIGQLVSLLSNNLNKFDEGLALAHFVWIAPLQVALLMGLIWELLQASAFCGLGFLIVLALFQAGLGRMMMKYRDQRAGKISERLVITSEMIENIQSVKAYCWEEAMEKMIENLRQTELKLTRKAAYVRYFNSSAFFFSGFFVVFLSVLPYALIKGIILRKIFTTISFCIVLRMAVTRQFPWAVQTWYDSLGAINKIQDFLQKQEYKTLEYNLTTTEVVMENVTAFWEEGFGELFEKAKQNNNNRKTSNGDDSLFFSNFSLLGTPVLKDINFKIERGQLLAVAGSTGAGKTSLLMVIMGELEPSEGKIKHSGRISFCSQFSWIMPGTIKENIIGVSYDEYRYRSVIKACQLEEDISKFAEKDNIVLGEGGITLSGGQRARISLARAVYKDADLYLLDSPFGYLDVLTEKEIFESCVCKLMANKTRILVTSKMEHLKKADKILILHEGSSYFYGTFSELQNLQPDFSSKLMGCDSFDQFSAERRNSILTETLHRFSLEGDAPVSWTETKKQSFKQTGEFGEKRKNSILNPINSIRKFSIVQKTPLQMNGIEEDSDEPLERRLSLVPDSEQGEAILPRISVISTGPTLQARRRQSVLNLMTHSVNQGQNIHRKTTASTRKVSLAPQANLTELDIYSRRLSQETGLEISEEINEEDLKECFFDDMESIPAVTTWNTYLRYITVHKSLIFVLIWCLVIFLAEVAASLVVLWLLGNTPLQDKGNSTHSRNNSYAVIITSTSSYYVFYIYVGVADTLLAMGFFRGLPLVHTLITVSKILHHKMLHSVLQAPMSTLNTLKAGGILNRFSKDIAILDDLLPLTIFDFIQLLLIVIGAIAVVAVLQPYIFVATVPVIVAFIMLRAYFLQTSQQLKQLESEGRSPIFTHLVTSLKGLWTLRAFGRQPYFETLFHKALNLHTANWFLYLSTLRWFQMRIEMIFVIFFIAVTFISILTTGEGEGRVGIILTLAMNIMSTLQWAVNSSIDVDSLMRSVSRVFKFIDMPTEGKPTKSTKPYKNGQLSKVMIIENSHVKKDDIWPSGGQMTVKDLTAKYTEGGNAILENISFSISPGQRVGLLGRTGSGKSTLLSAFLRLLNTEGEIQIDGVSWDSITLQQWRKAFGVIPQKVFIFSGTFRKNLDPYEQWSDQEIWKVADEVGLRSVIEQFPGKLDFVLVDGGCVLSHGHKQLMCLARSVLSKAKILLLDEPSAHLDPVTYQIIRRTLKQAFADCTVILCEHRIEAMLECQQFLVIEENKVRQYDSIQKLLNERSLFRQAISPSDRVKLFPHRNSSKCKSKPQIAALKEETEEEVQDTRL
T1 sequence (P13569 423-646 limits assumed): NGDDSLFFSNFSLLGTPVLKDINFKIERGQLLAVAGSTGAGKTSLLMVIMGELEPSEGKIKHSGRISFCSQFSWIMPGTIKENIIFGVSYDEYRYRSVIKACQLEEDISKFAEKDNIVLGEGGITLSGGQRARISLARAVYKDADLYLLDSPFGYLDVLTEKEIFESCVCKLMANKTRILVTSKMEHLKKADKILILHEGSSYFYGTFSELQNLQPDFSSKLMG

SMILES | DSLS 3D (100 μM ΔT) (NBD1) | TECC (AUC, 10 μM) (CFTR)
Cn1nc2nc1-c1cc(ccc1F)Oc1c(F)cc3[nH]ccc3c1CCS(=O)(=O)CC(C)(C)CCC[C@]2(C)c1cccc(CC(C)(C)C(=O)O)c1 [Compound 289, 3-[3-[(6R)-22,28-difluoro-3,6,10,10-tetramethyl-12,12-dioxo-24-oxa-12λ6-thia-3,4,19,30-tetrazapentacyclo[23.3.1.12,5.015,23.016,20]triaconta-1(29),2(30),4,15,17,20,22,25,27-nonaen-6-yl]phenyl]-2,2-dimethyl-propanoic Acid] | C (a value greater than 10 °C and less than or equal to 25 °C is marked “C”) | C (a value between 20 and 80 is marked “C”)
CC(Cc1cccc(C2CCCC(C)(C)CS(=O)(=O)CCc3c(c(F)cc4[nH]ccc34)Oc3ccc(F)c(c3)-c3nc2nn3C)c1)C(=O)O (centres unmarked) [Compound 114, 3-[3-(22,28-Difluoro-3,10,10-trimethyl-12,12-dioxo-24-oxa-12λ6-thia-3,4,19,30-tetrazapentacyclo[23.3.1.12,5.015,23.016,20]triaconta-1(29),2(30),4,15,17,20,22,25,27-nonaen-6-yl)phenyl]-2-methyl-propanoic Acid] | C (a value greater than 10 °C and less than or equal to 25 °C is marked “C”) | B (a value between 12-20 is marked “B”)
Cn1nc2nc1-c1cc(ccc1F)Oc1c(F)cc3[nH]ccc3c1CCS(=O)(=O)CC(C)(C)CCCC2(CO)c1cccc(CCC(=O)O)c1 (centres unmarked) [Compound 103, 3-[3-[22,28-Difluoro-6-(hydroxymethyl)-3,10,10-trimethyl-12,12-dioxo-24-oxa-12lambda6-thia-3,4,19,30-tetrazapentacyclo[23.3.1.12,5.015,23.016,20]triaconta-1(29),2(30),4,15,17,20,22,25,27-nonaen-6-yl]phenyl]propanoic Acid] | C (a value greater than 10 °C and less than or equal to 25 °C is marked “C”) | A (a TECC value less than 12 is marked “A”)
CC1(C)CS(=O)(=O)CCc2c(c(F)cc3[nH]ccc23)Oc2ccc(F)c(c2)-c2ccn(n2)C(c2cccc(CCC(=O)O)c2)CCO1 (single isomer, unassigned) [Compound 87A, 3-[3-(22,28-difluoro-10,10-dimethyl-12,12-dioxo-9,24-dioxa-12lambda6-thia-5,19,30-triazapentacyclo[23.3.1.12,5.015,23.016,20]-triaconta-1(29),2(30),3,15,17,20,22,25,27-nonaen-6-yl)phenyl]propanoic acid] | B (a value above 5 °C and less than or equal to 10 °C is marked “B”) | A (a TECC value less than 12 is marked “A”)
CC(Cc1cccc(C2(C)CCCC(C)(C)CS(=O)(=O)CCc3c(c(F)cc4[nH]ccc34)Oc3cccc(c3)-c3nc2cn3C)c1)C(=O)O (centres unmarked) [Compound 117, 3-[3-(22-Fluoro-3,6,10,10-tetramethyl-12,12-dioxo-24-oxa-12λ6-thia-3,19,30-triazapentacyclo[23.3.1.12,5.015,23.016,20]triaconta-1(29),2(30),4,15,17,20,22,25,27-nonaen-6-yl)phenyl]-2-methyl-propanoic Acid] | C (a value greater than 10 °C and less than or equal to 25 °C is marked “C”) | C (a value between 20 and 80 is marked “C”)
[2H]C([2H])([2H])C1(c2cccc(CCC(=O)O)c2)CCCC(C)(C)CS(=O)(=O)CCc2c(c(F)cc3[nH]ccc23)Oc2ccc(F)c(c2)-c2nc1nn2C (single isomer, unassigned) [Compound 96B, 3-[3-[22,28-difluoro-3,10,10-trimethyl-12,12-dioxo-6-(trideuteriomethyl)-24-oxa-12lambda6-thia-3,4,19,30-tetrazapentacyclo-[23.3.1.12,5.015,23.016,20]triaconta-1(29),2(30),4,15,17,20,22,25,27-nonaen-6-yl]phenyl]propanoic Acid] | A (an ΔTagg value less than or equal to 5 °C is marked “A”) | A (a TECC value less than 12 is marked “A”)
COC(=O)[C@H](C)Cc1csc(C2(C)CCCC(C)(C)CS(=O)(=O)CCc3c(c(F)cc4[nH]ccc34)Oc3ccc(F)c(c3)-c3nc2nn3C)c1 (stereo partly drawn) [Compound 193, Methyl (2R)-3-[5-(22,28-difluoro-3,6,10,10-tetramethyl-12,12-dioxo-24-oxa-12λ6-thia-3,4,19,30-tetrazapentacyclo[23.3.1.12,5.015,23.016,20]triaconta-1(29),2(30),4,15,17,20,22,25,27-nonaen-6-yl)-3-thienyl]-2-methyl-propanoate] | B (a value above 5 °C and less than or equal to 10 °C is marked “B”) | C (a value between 20 and 80 is marked “C”)
C[C@@H](Cc1cccc(C2(C)CCCC(C)(C)CS(=O)(=O)CCc3c(c(F)cc4[nH]ccc34)[S+]([O-])c3ccc(F)c(c3)-c3nc2nn3C)n1)C(=O)O (single isomer, unassigned) [Compound 179C] | C (a value greater than 10 °C and less than or equal to 25 °C is marked “C”) | C (a value between 20 and 80 is marked “C”)
C[C@H](Cc1cccc(C2(C)CCCC(C)(C)CS(=O)(=O)CCc3c(c(F)cc4[nH]ccc34)Oc3ccc(F)c(c3)-c3nc2c[nH]3)c1)C(=O)O (single isomer, unassigned) [Compound 157A] | A (an ΔTagg value less than or equal to 5 °C is marked “A”) | A (a TECC value less than 12 is marked “A”)
C[C@H](Cc1cccc(C2(C)CCCC(C)(C)CS(=O)(=O)CCc3c(c(F)cc4[nH]ccc34)C(=O)c3ccc(F)c(c3)-c3nc2nn3C)c1)C(=O)O (single isomer, unassigned) [Compound 126B] | B (a value above 5 °C and less than or equal to 10 °C is marked “B”) | B (a value between 12-20 is marked “B”)
Cn1nc2nc1-c1cc(ccc1F)[S+]([O-])c1c(F)cc3[nH]ccc3c1CCS(=O)(=O)CC(C)(C)CCC[C@]2(C)c1cccc(CCC(=O)O)c1 (single isomer, unassigned) [Compound 215B] | C (a value greater than 10 °C and less than or equal to 25 °C is marked “C”) | C (a value between 20 and 80 is marked “C”)
C[C@H](Cc1cccc(C2(C)CCCC(C)(C)CS(=O)(=O)CCc3c(c(F)cc4[nH]ccc34)Cc3ccc(F)c(c3)-c3nc2nn3C)c1)C(=O)O (single isomer, unassigned) [Compound 169A] | C (a value greater than 10 °C and less than or equal to 25 °C is marked “C”) | A (a TECC value less than 12 is marked “A”)
C[C@@H](Cc1cccc([C@@]2(C)CCCC(C)(C)CS(=O)(=O)CCc3c(c(F)cc4[nH]ccc34)Sc3ccnc(c3)-c3nc2nn3C)c1F)C(=O)O [Compound 277, (2S)-3-[2-fluoro-3-[(6R)-22-fluoro-3,6,10,10-tetramethyl-12,12-dioxo-12λ6,24-dithia-3,4,19,28,30-pentazapentacyclo[23.3.1.12,5.015,23.016,20]triaconta-1(29),2(30),4,15,17,20,22,25,27-nonaen-6-yl]phenyl]-2-methyl-propanoic acid] | C (a value greater than 10 °C and less than or equal to 25 °C is marked “C”) | A (a TECC value less than 12 is marked “A”)
